Test results: article PMC6271966, “Synthesis and Biological Activity of Some Bile Acid-Based Camptothecin Analogues” (Molecules, 2014)

How the values were obtained:
[1] = tested on: human breast cancer cell line (MCF-7); assay: MTT cytotoxicity assay, MCF-7; type: cell-based; conditions: MCF7, 72 h, read-out: In Vitro Cytotoxicity (IC50, µM) MCF-7
Procedure: (§1) The cytotoxicity of these compounds against three cancer cell lines was assayed using a conventional microtitre plate tetrazolium cytotoxicity assay. The human hepatoma cancer cell line (SMMC-7721), the colon cancer cell line (HCT-116), and the human breast cancer cell line (MCF-7) were provided by The Chinese Academy of Sciences cell bank. These cells were plated at a density of 1 × 10^5 cells/mL and incubated in a 96-well late for 24 h (37 °C, 5% CO2). The cells were then exposed to various concentrations of the compounds (0.0032, 0.016, 0.08, 0.4, 2, 10, and 50 µM/mL) continuously for 72 h. After this incubation, MTT solution (20 μL, 5 mg/mL) was added to each well and incubated for a further 4 h before removing the media. Formazan crystals were then dissolved by the addition of DMSO (100 μL per well). After mixing, the absorbance was read at 540 nm on a microplate reader. These assays were performed in three independent experiments. Wells containing no drugs, or CPT, were used as negative and positive controls, respectively. The IC50 values, defined as the concentration of compounds that produced a 50% decrease in surviving cells, were calculated using the Logit-method.

[2] = tested on: human colon cancer cell line (HCT-116); assay: MTT cytotoxicity assay, HCT-116; type: cell-based; conditions: HCT-116, 72 h, read-out: In Vitro Cytotoxicity (IC50, µM) HCT-116
Procedure: as §1

[3] = tested on: human hepatoma cell line (SMMC-7721); assay: MTT cytotoxicity assay, SMMC-7721; type: cell-based; conditions: SMMC-7721, 72 h, read-out: In Vitro Cytotoxicity (IC50, µM) SMMC7721
Procedure: as §1

[4] = Lactone stability in rat blood serum (HPLC); type: in vitro ADME; conditions: rat, serum
Procedure: Compounds E2, F2, G2, and H2 were dissolved in DMSO (100 μL, 4 mM/L) and incubated in rat blood serum (4 mL) at 37 °C. Aliquots were taken at different time points (0, 2, 4, 6, 8, 10, 12, and 24 h) and examined by HPLC, using CPT as the reference.

H22 mouse liver tumours = assay: In vivo anti-tumour activity, H22 mouse liver tumour model; conditions: H22 KM mice, i.p. every two days
Procedure: Anti-tumour activity screens of CPT-bile acid analogues were conducted in KM mice with H22 mouse liver tumours. Briefly, female mice weighing 18–22 g were subcutaneously inoculated at the right flank with a tumour cell suspension (1 × 10^6 cells) in 0.2 mL of phosphate-buffered saline. The mice were divided into subgroups 24 h after inoculation. These groups (n = 4) were treated with either vehicle (control), CPT, or the CPT-bile acid analogues. Mice received i.p. treatments once every two days. When the tumour weight of the control group reached 1.0–1.5 g, the mice were killed and the TIR (%) calculated.

[5] = Body weight and surviving mice in the H22 in vivo study; set-up: species or system mouse; conditions: for Mice Number End of Study: 4 mice at start
Procedure: Anti-tumour activity screens of CPT-bile acid analogues were conducted in KM mice with H22 mouse liver tumours. […] These groups (n = 4) were treated with either vehicle (control), CPT, or the CPT-bile acid analogues. Mice received i.p. treatments once every two days.

Structure (SMILES) | IC50 [1] [µM] | melting point [°C] | IC50 [2] [µM] | IC50 [3] [µM] | other results
CC[C@@]1(OC(=O)COC(=O)CCC(C)C2CCC3C4C(C[C@H](O)[C@]23C)[C@@]2(C)CC[C@@H](O)CC2C[C@H]4O)C(=O)OCc2c1cc1n(c2=O)Cc2cc3ccccc3nc2-1 (stereo partly drawn) [Compound G1, Camptothecin-20 (S)-O-acetate-[N-(3′α,7′α,12′α-trihydroxy-24′-carbonyl-5′β-cholane)]] | 10.9 | 230 to 233 | 4 | 0.71 | 
CC[C@@]1(OC(=O)C(CCC(=O)OC)NC(=O)CCC(C)C2CCC3C4C(CC[C@]23C)[C@@]2(C)CC[C@@H](O)CC2C[C@@H]4O)C(=O)OCc2c1cc1n(c2=O)Cc2cc3ccccc3nc2-1 (stereo partly drawn) [Compound F3, Camptothecin-20 (S)-O-(D-Glu(OMe)) Ester-[N-(3′α,7′β-dihydroxy-24′-carbonyl-5′β-cholane)]] | 46.3 | 187 to 189 | 13 | 12.2 | 
CC[C@@]1(OC(=O)C(CCC(=O)OC)NC(=O)CCC(C)C2CCC3C4CCC5C[C@H](O)CC[C@]5(C)C4C[C@H](O)[C@]23C)C(=O)OCc2c1cc1n(c2=O)Cc2cc3ccccc3nc2-1 (stereo partly drawn) [Compound F2, Camptothecin-20 (S)-O-(D-Glu(OMe))Ester-[N-(3′α,12′α-dihydroxy-24′-carbonyl-5′β-cholane)]] | 11.8 | 199 to 200 | 36 | 2.25 | half-life at 97.6 µM [4]: > 24 h
CC[C@@]1(OC(=O)C(CCC(=O)OC)NC(=O)CCC(C)C2CCC3C4C(CC[C@]23C)[C@@]2(C)CC[C@@H](O)CC2C[C@H]4O)C(=O)OCc2c1cc1n(c2=O)Cc2cc3ccccc3nc2-1 (stereo partly drawn) [Compound F4, Camptothecin-20 (S)-O-(D-Glu(OMe)) Ester-[N-(3′α 7′α-dihydroxy-24′-carbonyl-5′β-cholane)]] | 120 | 182 to 185 | 20 | 2.23 | 
CC[C@@]1(O)C(=O)OCc2c1cc1n(c2=O)Cc2cc3cc(OCCCOC(=O)CCC(C)C4CCC5C4CCC4C6CC[C@@H](O)CC6C[C@H](O)C45)ccc3nc2-1 (stereo partly drawn) [Compound H3, 10-O-(3-O-(3′α,7′β-Dihydroxy-24′-carbonyl-5′β-cholan)-propyl)-20(S)-camptothecin] | 2.8 |  | 0.8 | 3.34 | 
CC[C@@]1(O)C(=O)OCc2c1cc1n(c2=O)Cc2cc3cc(OCCCOC(=O)CCC(C)C4CCC5C6C(C[C@H](O)C45)C4CC[C@@H](O)CC4C[C@H]6O)ccc3nc2-1 (stereo partly drawn) [Compound H1, 10-O-(3-O-(3′α,7′α,12′α-Trihydroxy-24′-carbonyl-5′β-cholan)-propyl)-20(S)-camptothecin] | 3 |  | 7.4 | 3.2 | 
CC[C@@]1(OC(=O)C(CCC(=O)OC)NC(=O)CCC(C)C2CCC3C4C(C[C@H](O)[C@]23C)[C@@]2(C)CC[C@@H](O)CC2C[C@H]4O)C(=O)OCc2c1cc1n(c2=O)Cc2cc3ccccc3nc2-1 (stereo partly drawn) [Compound F1, Camptothecin-20 (S)-O-(D-Glu (OMe)) Ester-[N-(3′α,7′α,12′α-trihydroxy-24′-carbonyl-5′β-cholane)]] | 40 | 195 to 196 | 70 | 55.7 | 
CC[C@@]1(O)C(=O)OCc2c1cc1n(c2=O)Cc2cc3cc(OCCCOC(=O)CCC(C)C4CCC5C4CCC4C6CC[C@@H](O)CC6C[C@@H](O)C45)ccc3nc2-1 (stereo partly drawn) [Compound H4, 10-O-(3-O-(3′α,7′α-Dihydroxy-24′-carbonyl-5′β-cholan)-propyl)-20(S)-camptothecin] | 30 |  | 1.4 | 2.18 | 
CC[C@@]1(OC(=O)COC(=O)CCC(C)C2CCC3C4C(CC[C@]23C)[C@@]2(C)CC[C@@H](O)CC2C[C@H]4O)C(=O)OCc2c1cc1n(c2=O)Cc2cc3ccccc3nc2-1 (stereo partly drawn) [Compound G4, Camptothecin-20 (S)-O-acetate-[N-(3′α,7′α-dihydroxy-24′-carbonyl-5′β-cholane)]] | 70 | 228 to 229 | 36 | 0.14 | TIR (%) (H22 mouse liver tumours; dose 19.21 × 3 µmol/kg): 35.45%; TIR (%) (H22 mouse liver tumours; dose 38.42 × 3 µmol/kg): 64.55%; TIR (%) (H22 mouse liver tumours; dose 57.63 × 3 µmol/kg): 71.12%; Mice Number End of Study ([5]; dose 19.21 × 3 µmol/kg i.p.): 4; Body Weight (g) End of Study ([5]; dose 19.21 × 3 µmol/kg i.p., start of study 19.1 g): 19.4 g; Mice Number End of Study ([5]; dose 38.42 × 3 µmol/kg i.p.): 4; Body Weight (g) End of Study ([5]; dose 38.42 × 3 µmol/kg i.p., start of study 21.0 g): 21.6 g; Mice Number End of Study ([5]; dose 57.63 × 3 µmol/kg i.p.): 4; Body Weight (g) End of Study ([5]; dose 57.63 × 3 µmol/kg i.p., start of study 19.8 g): 22.1 g
CC[C@@]1(OC(=O)COC(=O)CCC(C)C2CCC3C4C(CC[C@]23C)[C@@]2(C)CC[C@@H](O)CC2C[C@@H]4O)C(=O)OCc2c1cc1n(c2=O)Cc2cc3ccccc3nc2-1 (stereo partly drawn) [Compound G3, Camptothecin-20 (S)-O-acetate-[N-(3′α,7′β-dihydroxy-24′-carbonyl-5′β-cholane)]] | 62 | 229 to 230 | 12.1 | 6.84 | 
CC[C@@]1(OC(=O)CNC(=O)CCC(C)C2CCC3C4C(CC[C@]23C)[C@@]2(C)CC[C@@H](O)CC2C[C@H]4O)C(=O)OCc2c1cc1n(c2=O)Cc2cc3ccccc3nc2-1 (stereo partly drawn) [Compound E4, Camptothecin-20 (S)-O-glycine Ester-[N-(3′α,7′α-dihydroxy-24′-carbonyl-5′β-cholane)]] | 20 | 202 to 203 | 2.88 | 2.25 | 
CC[C@@]1(OC(=O)COC(=O)CCC(C)C2CCC3C4CCC5C[C@H](O)CC[C@]5(C)C4C[C@H](O)[C@]23C)C(=O)OCc2c1cc1n(c2=O)Cc2cc3ccccc3nc2-1 (stereo partly drawn) [Compound G2, Camptothecin-20 (S)-O-acetate-[N-(3′α,12′α-dihydroxy-24′-carbonyl-5′β-cholane)]] | 4 | 221 to 224 | 2.05 | 1.24 | half-life at 97.6 µM [4]: > 24 h
CC[C@@]1(OC(=O)CNC(=O)CCC(C)C2CCC3C4C(C[C@H](O)[C@]23C)[C@@]2(C)CC[C@@H](O)CC2C[C@H]4O)C(=O)OCc2c1cc1n(c2=O)Cc2cc3ccccc3nc2-1 (stereo partly drawn) [Compound E1, Camptothecin-20 (S)-O-glycine Ester-[N-(3′α,7′α,12′α-trihydroxy-24′-carbonyl-5′β-cholane)]] | 18.3 | 200 to 203 | 2.9 | 2.23 | 
CC[C@@]1(OC(=O)CNC(=O)CCC(C)C2CCC3C4C(CC[C@]23C)[C@@]2(C)CC[C@@H](O)CC2C[C@@H]4O)C(=O)OCc2c1cc1n(c2=O)Cc2cc3ccccc3nc2-1 (stereo partly drawn) [Compound E3, Camptothecin-20 (S)-O-glycine Ester-[N-(3′α,7′β-dihydroxy-24′-carbonyl-5′β-cholane)]] | 61 | 209 to 211 | 2.4 | 2.18 | 
